Where two headings read alike, the source gives them in different places. Where only a bound is given, the exact number is not on record here.

The target of this assay is recombinant eIF4E (Homo sapiens (Human), UniProt P06730). Kind of assay: Fluorescence polarization competition assay for eIF4E binding potency. Put shortly:
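Protein and fluorescent cap-analog probe (EDA-m7GDP-ATTO-550) were mixed first for 5 min, after which serially diluted compound was added to final 75 nM eIF4E, 20 nM probe, 1% DMSO. Reactions equilibrated 30 min at room temperature before polarization was measured.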
(In general: In fluorescence polarisation assays a small probe gives low polarisation when free and higher when bound to something large.)

[1] abbreviates: inhibition of eIF4E/EDA-m7GDP-ATTO-550 binding, calculated IC50 values, Table 4B, read-out: IC50.
[2] abbreviates: fluorescence polarization competition, 75 nM recombinant eIF4E, 20 nM EDA-m7GDP-ATTO-550, IC50 class, read-out: elF4E FP.
Setting [3] is: inhibition of eIF4E/EDA-m7GDP-ATTO-550 binding by 50%, Table 4B calculated values, read-out: IC50.

Chain of recombinant eIF4E (P06730 whole entry): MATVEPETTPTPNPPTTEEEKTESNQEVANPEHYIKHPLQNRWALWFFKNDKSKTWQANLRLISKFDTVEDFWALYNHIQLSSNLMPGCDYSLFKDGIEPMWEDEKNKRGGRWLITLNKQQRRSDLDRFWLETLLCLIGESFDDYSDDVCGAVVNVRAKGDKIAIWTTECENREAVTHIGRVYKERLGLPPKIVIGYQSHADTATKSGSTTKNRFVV

For the compound `Cc1nc2cnc(N3CCN(C4CC4)CC3)c(C#N)c2c(=O)n1CCOc1ccc(Cl)cc1-c1ccnc2c(C(=O)O)csc12` [compound 1306], the IC50 under setting [1] was 38.9 nM.
On the same count and under the same terms, in the case of `Cc1nc2cnc(N3CCN(C)C(CF)C3)c(C#N)c2c(=O)n1CC#Cc1ccc(Cl)cc1-c1ccnc2c(C(=O)O)csc12` (stereo not drawn) [compound 1459] it was 20.7 nM; in that of `Cc1nc2cnc(N(C)C3CCN(C(C)(C)C(F)F)CC3)c(C#N)c2c(=O)n1CCOc1ccc(Cl)cc1-c1ccnc2c(C(=O)O)csc12` [compound 1431], 19.8 nM.
For the compound `Cc1sc2c(-c3cc(Cl)ccc3OCCn3c(C)nc4cc(C(F)(F)F)c(N5CCN(C)CC5)c(C#N)c4c3=O)cc(CF)nc2c1C(=O)O` [compound 1237], the IC50 under setting [2] is below 50 nM and the IC50 under setting [1] was 6.68 nM.
Regarding `Cc1cc(-c2cc(Cl)ccc2OCCn2c(C)nc3cc(C(F)(F)F)c(OCC(F)(F)F)c(C#N)c3c2=O)c2scc(C(=O)O)c2n1` [compound 1074], the IC50 by setting is: under setting [2], below 50 nM; under setting [3], 17.4 nM.
As for `CCc1cc(-c2cc(Cl)ccc2OCCn2c(N)nc3cc(Cl)cc(C#N)c3c2=O)c2scc(C(=O)O)c2n1` [compound 1077], the IC50 was 50 to 1000 nM under setting [2] and 245 nM under setting [3].
For `Cc1ccc(C(=O)O)c2nccc(-c3cc(Cl)ccc3OCCn3cnc4cncc(C#N)c4c3=O)c12` [compound 45] the same measures were above 1000 nM and 2890 nM.
For the compound `Cc1ncc(C#N)c2c(=O)n(CCOc3ccc(Cl)cc3-c3ccc(C)c4c(C(=O)O)csc34)c(C)nc12` [compound 722], the IC50 under setting [2] was below 50 nM and the IC50 under setting [3] is 38 nM.
For the compound `Cc1nc2cc(C(F)(F)F)cc(C#N)c2c(=O)n1CCOc1ccc(Cl)cc1-c1cccc2c(C(=O)O)csc12` [compound 402], the IC50 reads like this: under setting [2], 50 to 1000 nM; under setting [3], 124 nM.
Consider `Cc1nc2c(C3CCN(CC(F)(F)F)CC3)ncc(C#N)c2c(=O)n1CCOc1ccc(Cl)cc1-c1ccnc2c(C(=O)O)csc12` [compound 1115], for which the IC50 runs as follows: under setting [2], below 50 nM; under setting [3], 6.77 nM.
The like results for `Cc1nc2cc(S(C)(=O)=O)c(F)c(C#N)c2c(=O)n1CCOc1ccc(Cl)cc1-c1ccnc2c(C(=O)O)csc12` [compound 278] were, in that order, below 50 nM and 12.7 nM.
Turning to `Cc1nc2cnc(N3CCN(C)C(CC#N)C3)c(C#N)c2c(=O)n1CCOc1ccc(Cl)cc1-c1ccnc2c(C(=O)O)csc12` (stereo not drawn) [compound 1342], under setting [1], the IC50 is 30.4 nM.
In the case of `Cc1cc(-c2cc(Cl)ccc2OCCn2c(C)nc3cc(CN(C)C)c(OC(F)F)c(C#N)c3c2=O)c2scc(C(=O)NS(C)(=O)=O)c2n1` [compound 451], the IC50 was below 50 nM under setting [2] and 36 nM under setting [3].
With `Cc1cc(-c2cc(Cl)ccc2OCCn2c(C)nc3c(C)nc(-c4cccc(F)c4)c(C#N)c3c2=O)c2scc(C(=O)O)c2n1` [compound 475], the IC50 by setting is: under setting [2], below 50 nM; under setting [3], 17 nM.
As for `Cc1nc2cnc(N(C)C3CCN(CC(F)F)CC3)c(C#N)c2c(=O)n1C(C)C#Cc1ccc(Cl)cc1-c1ccnc2c(C(=O)O)csc12` (stereo not drawn) [compound 1557], the IC50 under setting [1] was 6.77 nM.
Turning to `Cc1cc(-c2cc(Cl)ccc2OCCn2c(C)nc3cnc(N4CC(N(C)C)C4)c(C#N)c3c2=O)c2sc(C)c(C(=O)O)c2n1` [compound 1091], the IC50 is 50 to 1000 nM under setting [2] and 91.4 nM under setting [3].
On to `Cc1nc2c(N(C)C3CCN(CC(F)(F)F)CC3)ncc(C#N)c2c(=O)n1CCOc1ccc(Cl)cc1-c1ccnc2c(C(=O)O)csc12` [compound 861], for which the IC50 is below 50 nM under setting [2] and 24.6 nM under setting [3].
As to `Cc1cc(-c2cc(Cl)ccc2OCCn2c(C)nc3cnc(N[N+](C)(C)C)c(C#N)c3c2=O)c2scc(C(=O)O)c2n1` [compound 1631], the IC50 under setting [1] was 16.1 nM.
Consider `Cc1nc2cc(C(F)(F)F)cc(C#N)c2c(=O)n1CCOc1ccc(Cl)cc1-c1cc(C(N)=O)nc2c(C(=O)O)csc12` [compound 445], for which the IC50 under setting [2] was 50 to 1000 nM.
As to `Cc1nc2cnc(C#CCN(C)CC(F)(F)F)c(C#N)c2c(=O)n1CC#Cc1ccc(Cl)cc1-c1ccnc2c(C(=O)O)csc12` [compound 1468], the IC50 under setting [1] is 35 nM.
Take `Cc1cc(-c2cc(Cl)ccc2OCCn2c(C)nc3cnc(C#N)cc3c2=O)c2scc(C(=O)NS(C)(=O)=O)c2n1` [compound 598]: the IC50 is 50 to 1000 nM under setting [2] and 57.2 nM under setting [3].
Regarding `Cc1nc2cc(C(F)(F)F)cc(C#N)c2c(=O)n1CCOc1cc(F)c(Cl)cc1-c1ccnc2c(C(=O)O)csc12` [compound 1903], the IC50 under setting [1] is 29.8 nM.
With `Cc1nc2cnc(N(C)C3CCN(C4(C(F)F)COC4)CC3)c(C#N)c2c(=O)n1CC#Cc1ccc(Cl)cc1-c1ccnc2c(C(=O)NS(C)(=O)=O)csc12` [compound 1590], the IC50 under setting [1] is 36 nM.
In the case of `Cc1cc(-c2cc(Cl)ccc2OCCn2c(C)nc3cc(C(F)(F)F)c(C(=O)N(C)C)c(C#N)c3c2=O)c2scc(C(=O)O)c2n1` [compound 789], the IC50 by setting is: under setting [2], below 50 nM; under setting [3], 8.96 nM.
With `Cc1cc(-c2cc(Cl)ccc2C#CCn2c(C)nc3cc(C(F)(F)F)c(N4CCN(CCO)CC4)c(C#N)c3c2=O)c2scc(C(=O)O)c2n1` [compound 856], the IC50 reads like this: under setting [2], below 50 nM; under setting [3], 13.7 nM.
The like results for `Cc1cc(-c2cc(Cl)ccc2OCCn2c(C)nc3c(C)nc(-c4cnc(N)cc4F)c(C#N)c3c2=O)c2scc(C(=O)O)c2n1` [compound 874] were, in that order, below 50 nM and 41.5 nM.
With `Cc1nc2cnc(N(C)C3CCN([C@H]4C[C@@H](OC(F)(F)F)C4)CC3)c(C#N)c2c(=O)n1CC#Cc1ccc(Cl)cc1-c1ccnc2c(C(=O)O)csc12` [1173a], the IC50 under setting [3] was 19.2 nM.
`Cc1nc2cc(OC(F)F)c(CN(C)C)c(C#N)c2c(=O)n1CCOc1ccc(Cl)cc1-c1ccnc2c(C(=O)O)csc12` [compound 531]: the IC50 under setting [2] is below 50 nM and the IC50 under setting [3] is 42.9 nM.
On to `Cc1nc2cnc(N3CCN(C(C)(C)C)CC3)c(C#N)c2c(=O)n1CCOc1ccc(Cl)cc1-c1ccnc2c(C(=O)O)csc12` [compound 1313], for which the IC50 under setting [1] was 42.6 nM.
The same measure, in the same setting: in the case of `Cc1nc2cnc(N3CCN(CC(F)(F)F)CC3)c(C#N)c2c(=O)n1CC#Cc1ccc(Cl)cc1-c1ccnc2c(C(=O)NS(C)(=O)=O)csc12` [compound 1362] it was 14.1 nM.
On to `Cc1nc2cnc(C3CC3)c(C#N)c2c(=O)n1CC#Cc1ccc(Cl)cc1-c1ccnc2c(C(=O)O)csc12` [compound 384], for which the IC50 is below 50 nM under setting [2] and 20.9 nM under setting [3].
As for `Cc1cc(-c2cc(Cl)ccc2OCCn2c(C)nc3cc4c(c(C#N)c3c2=O)CN(C)CC4)c2scc(C(=O)O)c2n1` [compound 336], the IC50 under setting [2] is below 50 nM and the IC50 under setting [3] is 27.9 nM.
Turning to `Cc1nc2cnc(C3CCCN(CC(F)F)C3)c(C#N)c2c(=O)n1CCCc1ccc(Cl)cc1-c1ccnc2c(C(=O)O)csc12` (stereo not drawn) [compound 1571], the IC50 under setting [1] is 20.5 nM.
Regarding `O=C(O)c1cccc(-c2cc(Cl)ccc2OCCn2cnc3ccccc3c2=O)c1` [compound 11], the IC50 by setting is: under setting [2], above 1000 nM; under setting [3], 6850 nM.
Turning to `Cc1nc2cnc(N(C)C3CCN(CC(F)(F)F)CC3)c(C#N)c2c(=O)n1CC#Cc1ccc(Cl)cc1-c1ccnc2c(C(=O)NS(=O)(=O)Cc3ccccn3)csc12` [compound 1673], the IC50 under setting [1] is 7.22 nM.
As to `Cc1cc(-c2cc(Cl)ccc2OCCn2c(C)nc3cc(C(F)(F)F)c(-c4cccnc4)c(C#N)c3c2=O)c2scc(C(=O)O)c2n1` [compound 630], the IC50 by setting is: under setting [2], 50 to 1000 nM; under setting [3], 50.2 nM.
`Cc1nc2cncc(C#N)c2c(=O)n1CCOc1ccc(Cl)cc1-c1ccnc(C(=O)O)c1` [compound 35]: the IC50 is below 50 nM under setting [2] and 44.3 nM under setting [3].
For the compound `CCN(c1ncc2nc(C)n(CC#Cc3ccc(Cl)cc3-c3ccnc4c(C(=O)NS(=O)(=O)c5cccnc5)csc34)c(=O)c2c1C#N)C1CCN([C@H]2C[C@H](OC(F)F)C2)CC1` [compound 1770], the IC50 under setting [1] is 17.5 nM.
With `COC(=O)c1csc2c(-c3cc(Cl)ccc3C#CCn3c(C)nc4cnc(N(C)C5CCN(CC(F)F)CC5)c(C#N)c4c3=O)ccnc12` [compound 1113], the IC50 was 50 to 1000 nM under setting [2] and 140 nM under setting [3].
Turning to `Cc1nc2cc(C(F)(F)F)c(CCN3CC(F)(F)C3)c(C#N)c2c(=O)n1CCOc1ccc(Cl)cc1-c1ccnc2c(C(=O)O)csc12` [compound 1287], the IC50 under setting [1] is 42.4 nM.
For `Cc1nc2cc(C(F)F)c(OC(F)F)c(C#N)c2c(=O)n1CCOc1ccc(Cl)cc1-c1ccnc2c(C(=O)O)csc12` [compound 548], the IC50 is, setting by setting: under setting [2], below 50 nM; under setting [3], 47.2 nM.
Take `Cc1nc2cnc(N(C)C3CCN(CC(C)(F)F)CC3)c(C(N)=O)c2c(=O)n1CC#Cc1ccc(Cl)cc1-c1ccnc2c(C(=O)O)csc12` [compound 1961]: under setting [1], the IC50 was 211 nM.
On to `Cc1c(F)c2cc(C#N)cc(C#N)c2c(=O)n1CCOc1ccc(Cl)cc1-c1ccnc2c(C(=O)O)csc12` [compound 273], for which the IC50 by setting is: under setting [2], below 50 nM; under setting [3], 30.2 nM.
`Cc1nc2cc(C(F)(F)F)c(C(F)F)c(C#N)c2c(=O)n1CCOc1ccc(Cl)cc1-c1cccc(C(=O)O)c1` [compound 59]: the IC50 reads like this: under setting [2], below 50 nM; under setting [3], 21.5 nM.
For `CCc1cc(-c2c(C(F)(F)F)cc3nc(C)n(CCOc4ccc(Cl)cc4-c4cc(C)nc5c(C(=O)O)csc45)c(=O)c3c2C#N)ccn1` [compound 468], the IC50 under setting [2] was below 50 nM and the IC50 under setting [3] was 4.36 nM.
Regarding `Cc1nc2cc(S(C)(=O)=O)cc(C#N)c2c(=O)n1CCOc1ccc(Cl)cc1-c1ccnc2c(C(=O)O)csc12` [compound 194], the IC50 runs as follows: under setting [2], below 50 nM; under setting [3], 35.8 nM.
As for `Cc1nc2cnc(N3CCN(CC(C)(C)F)CC3)c(C#N)c2c(=O)n1CCOc1ccc(Cl)cc1-c1ccnc2c(C(=O)NS(C)(=O)=O)csc12` [compound 1516], the IC50 under setting [1] was 17 nM.
